Assay results taken from US20230251277A1, “METHOD FOR DETERMINING THE LEVEL OF VITAMIN D AND METABOLITES THEREOF” (Roche Diagnostics Operations, Inc., priority 2020, published 2023).
Values after ≈ are worked out from the molar mass of the structure shown. “Also recorded” adds a separate entry of the source.

Key:
[1] = physchem; details: aqueous with cosolvent or surfactant or cyclodextrin
[2] = Dynamic viscosity of the releasing reagent solution; assay type: physicochemical
[3] = target: T1, Vitamin D binding protein (Homo sapiens, UniProt P02774); test: Screening of releasing reagent candidates: recovery of Vitamin D metabolites from spiked native serum pool (immunobead capture, LC-MS/MS); assay type: biochemical; design: native serum pool and homogenized; from tissue; host or cells: native serum pool (spiked with vitamin D metabolites); details: 45 µl pretreatment reagent at the concentration of the 1st table
T1 sequence (P02774 17-474): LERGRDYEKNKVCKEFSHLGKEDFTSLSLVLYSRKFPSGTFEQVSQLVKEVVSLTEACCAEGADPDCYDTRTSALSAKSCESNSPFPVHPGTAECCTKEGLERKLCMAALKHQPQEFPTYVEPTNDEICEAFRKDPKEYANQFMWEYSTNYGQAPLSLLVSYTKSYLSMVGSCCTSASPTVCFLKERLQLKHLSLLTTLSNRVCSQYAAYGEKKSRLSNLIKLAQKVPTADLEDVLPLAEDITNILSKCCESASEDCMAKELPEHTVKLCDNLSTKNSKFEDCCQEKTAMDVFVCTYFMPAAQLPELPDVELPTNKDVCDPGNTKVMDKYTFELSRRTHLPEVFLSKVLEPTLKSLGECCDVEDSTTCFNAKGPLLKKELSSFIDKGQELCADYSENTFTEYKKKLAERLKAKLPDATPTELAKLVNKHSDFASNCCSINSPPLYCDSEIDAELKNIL
Procedure: 0.30 ml di-OH Vitamin D stock solution ([…] 24R,25-di-OH Vitamin D3 and […] 24R,25-di-OH Vitamin D2 in methanol) and 0.55 ml mono-OH Vitamin D stock solution (10.00 µg/ml 25-OH Vitamin D3 and 10.00 µg/ml 25-OH Vitamin D2 in methanol) are added to 99.1 5 ml native serum pool and homogenized. Thus resulting concentrations in the spiked pool are: • 3.9 ng/ml 24R,25-di-OH Vitamin D3 • 6.0 ng/ml 24R,25-di-OH Vitamin D2 • 55.0 ng/ml 25-OH Vitamin D2 • 84.9 ng/ml 25-OH Vitamin D3 Endogenous amounts in the original native serum pool are taken into account.
Molar concentrations of the evaluated chemicals are:
10 µl Vitamin D free serum (representing ISTD dummy) are pipetted to 145 µl sample in a plastic vessel. After incubation with periodic shaking for 231 s at 37° C., 45 µl pretreatment reagent are added. Again, an incubation with periodic shaking for 640 s at 37° C. takes place. Therefore Vitamin D should be or is gently released from Vitamin D binding protein. In the next step 50 µl immunobead suspension are pipetted to the mixture. Again, an incubation with periodic shaking for 393 s at 37℃ takes place. After twofold bead wash using 0.01 M PBS and magnetic separation, 60 µl of the elution reagent water/methanol 2/8 (v/v) are added and a 40 s incubation period takes place. It is possible to transfer 40 µl supernatant in a HPLC glass vial while 20 µl have to remain in the vessel to avoid the carry-over of beads into the supernatant. In the final step 40 µl internal standard working solution are added to the supernatant and homogenized by means of sip and spit pipetting technique.
HPLC-MS/MS analysis is performed using a 1290 infinity Multisampler and a 1290 Inifinity LC System (Agilent Technologies, Santa Clara/USA) coupled to a Triple Quad 6500+ MS (Sciex, Darmstadt).
40 µl of each sample are injected on the analytical C18 column (50×2.1 mm, 2.6 µm, Hitachi, Tokio/Japan) in order to separate the analytes. This is realized with a flow rate of 1.0 ml/min and at a column temperature of 50° C. Separation of the analytes is achieved with the following gradient of 50 mM formic acid (A) and methanol (B): • 0.00 min: 80% […] • 0.70 min: 90% B • 0.75 min: 98% B • 1.70 min: 98% B • 1.80 min: 80% B • 2.40 min: 80% B
The coupled MS detector is operating in positive electrospray ionisation (ESI) mode. The Vitamin D analytes are detected using multi reaction monitoring (MRM) technique. Doing this two periods are applied: 0.00-0.60 min for measurement of 24R,25-di-OH Vitamin D2/D3 and 0.60-2.40 min for the detection of 25-OH Vitamin
Calibration is performed by means of LC-MS/MS of Vitamin D standards in solvent (60% MeOH) containing internal standards as concentrated as in the processed samples. For example, calibration levels for 25-OH Vitamin D3 are 2, 5, 10, 25, 50 and 100 ng/ml, while the concentration of 25-OH Vitamin D3 13C5 is set to 30 ng/ml.
Due to the fact that internal standard concentrations are identical both in calibrators and processed samples, it is possible to calculate recoveries for each analyte with the formula: […]
The results are shown in FIGS. 2 to 5 show the recovery of the releasing reagent candidates for 25-OH Vitamin D3 (FIG. 2), 25-OH Vitamin D2 (FIG. 3), 24R25-di-OH Vitamin D3 (FIG. 4) and 24R25-di-OH Vitamin D2 (FIG. 5).
Each error bar in FIGS. 2 and 5 is constructed using the min and the max. of the data.

[4] = target: T1, Vitamin D binding protein; test: Pretreatment optimization (design of experiments): 25-OH Vitamin D3 area ratio / analyte recovery in serum, plasma, Vitamin D free serum

Q: Which solubility [1] does the source give for `O=C([O-])c1ccccc1O.[Na+]` [PT1, Sodium Salicylate, reference compound] here?
A: 5600 mM

Q: What about the dynamic viscosity ([2]; at 6° C. for 5.6 M solution in 0.01 M PBS/methanol 9/1) of the same compound?
A: 23 mPas

Q: And the dynamic viscosity ([2]; at 6° C., (pre)treatment containing 5.6 M (PT1))?
A: 23 mPa·s

Q: What about the “recovery of Vitamin D metabolites (25-OH D3, 25-OH D2, 24R,25-di-OH D3, 24R,25-di-OH D2)” value (from here on “recovery of Vitamin D metabolites”) ([3]; FIGS. 2 to 5) of the same compound?
A: Highest recoveries

Q: What does the source list for `N.O=C(O)c1ccccc1O` [PT2, Ammonium Salicylate]?
A: solubility [1]: 5600 mM; recovery of Vitamin D metabolites (25-OH D3, 25-OH D2, 24R,25-di-OH D3, 24R,25-di-OH D2) ([3]; FIGS. 2 to 5): Highest recoveries

Q: Which solubility [1] does the source give for `O=C(OCCO)c1ccccc1O` [PT3, Ethylen glycol monosalicylate] here?
A: 50 mM (≈ 9110 µg/mL)

Q: Which solubility [1] does the source give for `O=C(O)c1ccc(O)c(C(=O)O)c1` [PT4, 4-Hydroxyisophthalic acid] here?
A: 1 mM (≈ 182 µg/mL)

Q: Which solubility [1] does the source give for `O=C(O)c1cccc(O)c1` [PT5, 3-Hydroxybenzoic acid] here?
A: 50 mM (≈ 6910 µg/mL)

Q: And the “recovery of Vitamin D metabolites” value ([3]; FIGS. 2 to 5)?
A: Highest recoveries

Q: Which solubility [1] does the source give for `Cc1ccc(C(=O)O)c(O)c1` [PT6, 4-Methylsalicylic acid] here?
A: 20 mM (≈ 3040 µg/mL)

Q: Which results are given for `O=C(O)c1ccc(O)cc1O` [PT7, 2,4-Dihydroxybenzoic acid]?
A: solubility [1]: 50 mM (≈ 7710 µg/mL); recovery of Vitamin D metabolites (25-OH D3, 25-OH D2, 24R,25-di-OH D3, 24R,25-di-OH D2) ([3]; FIGS. 2 to 5): Highest recoveries

Q: With `COC(=O)c1ccc(O)cc1.[Na]` [PT8, Methylparaben Sodium] as the compound, how does the “recovery of Vitamin D metabolites” value ([3]; FIGS. 2 to 5) read?
A: Lowest recoveries

Q: With `COc1ccccc1C(=O)O` [PT9, 2-Methoxy-benzoic acid] as the compound, how does the solubility [1] read?
A: 30 mM (≈ 4560 µg/mL)

Q: Which solubility [1] does the source give for `CC(=O)Oc1ccccc1C(=O)O` [PT10, Aspirin, reference compound] here?
A: 10 mM (≈ 1800 µg/mL)

Q: For `O=C(O)c1cc(/N=N/c2ccc(S(=O)(=O)Nc3ccccn3)cc2)ccc1O` [PT11, Sulfasalazine, reference compound], which solubility [1] is on record?
A: 9 mM (≈ 3590 µg/mL)

Q: For `O=C(O)c1ccccc1O` [PT12, Salicylic acid, reference compound], which solubility [1] is on record?
A: 30 mM (≈ 4140 µg/mL)

Q: Which solubility [1] does the source give for `Cc1ccc(O)c(C(=O)O)c1` [PT13, 2-Hydroxy-5-methylbenzoic acid] here?
A: 10 mM (≈ 1520 µg/mL)

Q: Which “recovery of Vitamin D metabolites” value ([3]; FIGS. 2 to 5) does the source give for `COC(=O)c1ccc(O)cc1` [PT14, Methyl-4-hydroxybenzoate] here?
A: Lowest recoveries

Q: Which solubility [1] does the source give for `Cc1cccc(C(=O)O)c1O` [PT15, 3-Methylsalicylic acid] here?
A: 10 mM (≈ 1520 µg/mL)

Q: With `COC(=O)c1ccccc1O` [PT16, Methyl Salicylate, reference compound] as the compound, how does the solubility [1] read?
A: 10 mM (≈ 1520 µg/mL)

Q: For `O=C(Oc1ccccc1)c1ccccc1O` [PT17, Phenyl Salicylate], which solubility [1] is on record?
A: 0.9 mM (≈ 193 µg/mL)

Q: Which solubility [1] does the source give for `O=C(O)c1cc(-c2ccc(F)cc2F)ccc1O` [PT18, Diflunisal, reference compound] here?
A: 0.4 mM (≈ 100 µg/mL)

Q: With `CCOC(=O)c1cc(OCC)ccc1O` [PT19, Ethyl-5-ethoxy-2-hydroxybenzoate] as the compound, how does the solubility [1] read?
A: 4 mM (≈ 841 µg/mL)

Q: With `O=C([O-])c1cccc(O)c1.[Na+]` [PT20, 3-Hydroxybenzoic acid sodium salt] as the compound, how does the solubility [1] read?
A: 2800 mM

Q: What about the “recovery of Vitamin D metabolites” value ([3]; FIGS. 2 to 5) of the same compound?
A: Highest recoveries

Q: With `Cc1cccc(C(=O)[O-])c1O.[Na+]` [PT21, 3-Methyl Salicylic acid Sodium salt] as the compound, how does the “Vitamin D release in a patient serum sample” value ([4]; 450 mM formic acid/0.7 M versus 0 mM formic acid/2.3 M) read?
A: comparable Vitamin D release

Q: And the “analyte recovery compared with 5.6 M Salicylic acid sodium salt (PT1)” value ([4]; optimized pretreatment: 2.3 M, 35/65 (v/v) methanol/0.01 M PBS, 0% FA, Sodium salt)?
A: comparable to the recovery with salicylic acid sodium salt

Q: And the dynamic viscosity ([2]; at 6° C., 2.3 M dissolved in 35/65 MeOH/0.01 M PBS (v/v))?
A: 8.3 mPa·s

Q: What about the “recovery of Vitamin D metabolites” value ([3]; FIGS. 2 to 5, Sodium salt) of the same compound?
A: Highest recoveries; also recorded: highest analyte recovery

Q: And the “recovery of Vitamin D metabolites” value ([3]; FIGS. 2 to 5, listed as 3-methylsalicylic acid sodium salt, Sodium salt)?
A: highest analyte recovery

Q: With `O=C(O)c1ccc(C(F)(F)F)cc1O` [PT22, 2-Hydroxy-4-trifluoromethylbenzoic acid] as the compound, how does the solubility [1] read?
A: 6 mM (≈ 1240 µg/mL)
